Laboratory results: article PMC10793101 (Acta Pharmaceutica Sinica. B, 2023)

Experiments:
[1] = tested on: APAP-induced liver injury (AILI); conditions: cited from earlier work
TFEB [2] = test: qPCR of TFEB target genes in AML12 cells; format: cell-based, mouse; conditions: qPCR normalized to 18s
TFEB [3] = target: T1, TFEB (Homo sapiens, UniProt P19484); test: GFP-TFEB nuclear translocation assay in qHTS format; format: cell-based, mouse
T1 sequence (P19484 1-476): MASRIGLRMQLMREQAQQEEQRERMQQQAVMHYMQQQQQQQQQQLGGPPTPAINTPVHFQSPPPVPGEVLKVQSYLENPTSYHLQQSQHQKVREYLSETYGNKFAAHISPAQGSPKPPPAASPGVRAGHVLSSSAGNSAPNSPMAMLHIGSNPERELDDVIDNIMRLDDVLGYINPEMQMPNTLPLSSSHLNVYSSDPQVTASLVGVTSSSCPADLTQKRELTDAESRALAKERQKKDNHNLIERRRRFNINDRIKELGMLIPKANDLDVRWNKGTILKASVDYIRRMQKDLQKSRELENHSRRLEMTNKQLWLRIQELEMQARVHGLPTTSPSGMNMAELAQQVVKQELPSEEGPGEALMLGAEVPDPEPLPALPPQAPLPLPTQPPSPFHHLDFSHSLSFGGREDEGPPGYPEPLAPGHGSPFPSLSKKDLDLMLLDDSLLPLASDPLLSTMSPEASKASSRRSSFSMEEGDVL

[4] = tested on: APAP-induced liver injury (AILI); test: Protection against APAP overdose-induced liver injury in mice; format: in vivo, mouse
TFEB [5] = target: T1, TFEB; test: GFP-TFEB nuclear translocation validation by confocal microscopy in AML12 cells; format: cell-based, mouse; conditions: stably expressing pEGFP-N1-TFEB AML12 cells, 24 h, vs control
TFEB [6] = test: TFEB promoter-driven luciferase reporter assay in AML12 cells; format: cell-based, mouse; conditions: AML12 cells transfected with pGL3-TFEB-Luc, 24 h treatment
[7] = salinomycin 5 mg/kg i.p. with APAP 500 mg/kg i.p., 6 and 24 h

CC(=O)Nc1ccc(O)cc1 [APAP, Acetaminophen]
levels of hepatic GSH (mouse livers; APAP 0.5, 2 and 6 h, recovered at 24 h): significantly decreased
serum alanine aminotransferase (ALT) levels (mouse livers; APAP 500 mg/kg i.p., 6 or 24 h, vs saline): significantly increased
mRNA levels of TFEB targeted genes in liver (mouse livers; APAP 500 mg/kg, 6 h, vs saline): significantly lower
levels of hepatic CYP2E1 (mouse livers; APAP-treated WT mouse livers vs saline-treated WT): ~2 fold

C[C@@H]1O[C@@H](OC[C@H]2O[C@@H](Oc3cc(O)c4c(c3)O[C@H](c3ccc(O)cc3)CC4=O)[C@H](O)[C@@H](O)[C@@H]2O)[C@H](O)[C@H](O)[C@H]1O [Narirutin]
hepatic APAP-adducts and AILI ([1]; mice, by activating TFEB via enhanced calcineurin activity): decrease

CC[C@@H](C(=O)[C@@H](C)[C@@H](O)[C@H](C)[C@@H]1O[C@@H]([C@@H](CC)C(=O)O)CC[C@@H]1C)[C@H]1O[C@]2(C=C[C@@H](O)[C@]3(CC[C@@](C)([C@H]4CC[C@](O)(CC)[C@H](C)O4)O3)O2)[C@H](C)C[C@@H]1C [Salinomycin]
mRNA levels of TFEB target genes (Tfeb, Sqstm1, Ppargc1a, Lamp1, Vatp6v1d, Vatp6v1h, Pparα) (TFEB [2]): increased
EC50 (TFEB [3]): 2.64 µM
hepatic levels of APAP-protein adducts ([4]; APAP-treated mice with or without salinomycin): similar
serum levels of APAP-adducts ([4]; APAP-treated mice with salinomycin): markedly decreased
hepatic protein levels of CYP2E1 ([4]; immunoblotting, salinomycin 5 mg/kg i.p.): did not change
hepatic TFEB levels ([4]; immunoblotting, salinomycin with APAP vs APAP): partially recovered
levels of phosphorylated JNK ([4]; liver, co-treatment of salinomycin after APAP overdose): reduced
areas of centrilobular necrosis (H&E and TUNEL staining) ([4]; salinomycin 5 mg/kg i.p. with APAP 500 mg/kg i.p.): almost completely abolished
serum ALT levels [4, 7]: markedly decreased
serum AST levels [4, 7]: markedly decreased
nuclear translocation of TFEB (TFEB [5]): significantly increased
TFEB promoter driven luciferase activity (TFEB [6]): significantly increased

CCN(CC)CCNC(=O)c1c(C)[nH]c(/C=C2\C(=O)Nc3ccc(F)cc32)c1C [Sunitinib]
effect on AILI at high dose ([1]; high dose): increases AILI
effect on AILI at low dose ([1]; low dose): mild hepatoprotective effect

CCC(=O)N1CCN(c2ccc(-n3c(=O)ccc4cnc5ccc(-c6cnc7ccccc7c6)cc5c43)cc2C(F)(F)F)CC1 [Torin1, Torin 1]
nuclear translocation of TFEB (TFEB [5]): significantly increased
